Data published in ChEMBL document CHEMBL1144872, “A quantitative structure-activity relationship and pharmacophore modeling investigation of aryl-X and heterocyclic bisphosphonates as bone resorption agents” (J Med Chem, 2003).
pIC50: −log10 of the molar value.

molecular target: bone resorption (Rattus norvegicus)

pIC50	Compound
8.30	Cc1ncn(CC(O)(P(=O)(O)O)P(=O)(O)O)c1C
5.93	CCCCN(CCCOc1ccccc1)CCC(O)(P(=O)(O)O)P(=O)(O)O
6.73	O=P(O)(O)C(Nc1nccn1Cc1ccccc1)P(=O)(O)O
8.15	O=P(O)(O)C(Nc1ncc(CCc2ccccc2)s1)P(=O)(O)O
8.71	Cn1ccnc1CC(O)(P(=O)(O)O)P(=O)(O)O
8.57	CCCCc1cnc(NC(P(=O)(O)O)P(=O)(O)O)s1
6.46	Cc1csc(NC(P(=O)(O)O)P(=O)(O)O)n1
7.19	O=C(c1ccccc1)n1ccnc1CC(O)(P(=O)(O)O)P(=O)(O)O
8.84	CN(CCCOc1ccc(F)cc1)CCC(O)(P(=O)(O)O)P(=O)(O)O
8.32	CCc1cnc(NC(P(=O)(O)O)P(=O)(O)O)s1
8.55	COc1ccc(OCCCN(C)CCC(O)(P(=O)(O)O)P(=O)(O)O)cc1
8.00	CN(CCCCOc1ccccc1)CCC(O)(P(=O)(O)O)P(=O)(O)O
8.39	CN(CCOc1ccc(Cl)cc1)CCC(O)(P(=O)(O)O)P(=O)(O)O
7.74	O=P(O)(O)C(Nc1nccs1)P(=O)(O)O
7.14	CCN(CCCOc1ccccc1)CCC(O)(P(=O)(O)O)P(=O)(O)O
8.51	CN(CCCOc1ccc(Cl)cc1)CCC(O)(P(=O)(O)O)P(=O)(O)O
6.61	CN(CCCOc1ccccc1)CCCC(O)(P(=O)(O)O)P(=O)(O)O
9.21	CN(CCCSc1ccccc1)CCC(O)(P(=O)(O)O)P(=O)(O)O
6.05	O=P(O)(O)C(O)(CCNCCc1ccccc1)P(=O)(O)O
7.62	CCCN(CCCOc1ccccc1)CCC(O)(P(=O)(O)O)P(=O)(O)O
5.71	O=P(O)(O)C(Nc1ncc[nH]1)P(=O)(O)O

pIC50	Compound
8.59	CN(CCCc1ccccc1)CCC(O)(P(=O)(O)O)P(=O)(O)O
7.75	O=P(O)(O)C(O)(Cc1ncc[nH]1)P(=O)(O)O
7.73	Cn1ccnc1NC(P(=O)(O)O)P(=O)(O)O
7.18	O=P(O)(O)C(O)(CCc1cnc[nH]1)P(=O)(O)O
8.89	CN(CCCOc1ccccc1)CCC(O)(P(=O)(O)O)P(=O)(O)O
5.44	CN(CCCCCCc1ccccc1)CCC(O)(P(=O)(O)O)P(=O)(O)O
6.80	O=P(O)(O)C(O)(CCn1ccnc1)P(=O)(O)O
6.13	O=P(O)(O)C(Cc1nccs1)P(=O)(O)O
7.74	O=P(O)(O)C(O)(CCNCCCSc1ccccc1)P(=O)(O)O
8.78	CN(CCCc1ccc(Cl)cc1)CCC(O)(P(=O)(O)O)P(=O)(O)O
8.37	Cc1cccc(OCCCN(C)CCC(O)(P(=O)(O)O)P(=O)(O)O)c1
7.75	CN(CCCSc1ccc(Cl)cc1)CCC(O)(P(=O)(O)O)P(=O)(O)O
7.25	O=P(O)(O)C(O)(CCNCCCc1ccccc1)P(=O)(O)O
6.20	CC(C)c1cnc(NC(P(=O)(O)O)P(=O)(O)O)s1
8.29	Cc1nc[nH]c1CC(O)(P(=O)(O)O)P(=O)(O)O
8.29	Cc1cnc(NC(P(=O)(O)O)P(=O)(O)O)s1
8.41	CN(CCc1ccccc1)CCC(O)(P(=O)(O)O)P(=O)(O)O
5.66	O=P(O)(O)C(O)(Cn1cncn1)P(=O)(O)O
8.21	CCCc1cnc(NC(P(=O)(O)O)P(=O)(O)O)s1
4.75	CN(CCCCCCOc1ccccc1)CCC(O)(P(=O)(O)O)P(=O)(O)O

Compound	pIC50
O=P(O)(O)C(O)(CCNCCCOc1ccccc1)P(=O)(O)O	8.49
O=P(O)(O)C(O)(CCNCCCCc1ccccc1)P(=O)(O)O	8.57
